Results published in US12583861B2, “Derivatives of imidazo[4,5-d]pyridazine, their preparation and their therapeutic application” (SANOFI, priority 2021, dated 2026).
Structures can show the parent of a compound that is named as a salt.

Columns and labels:
human TLR8 = target: T1, human TLR8 (Homo sapiens, UniProt Q9NR97); assay: HEK-Blue hTLR8 reporter cell assay (SEAP, NF-kB/AP-1) for stimulation of human TLR8; type: cell-based; conditions: HEK-Blue hTLR8 cells; for EC50: 24 h incubation, SEAP readout, read-out: TLR8_EC50; for activation at 20 µM: 24 h, at 20000 nM
T1 construct: host or cells: HEK293 (HEK-Blue hTLR8)
T1 sequence (Q9NR97 27-1041): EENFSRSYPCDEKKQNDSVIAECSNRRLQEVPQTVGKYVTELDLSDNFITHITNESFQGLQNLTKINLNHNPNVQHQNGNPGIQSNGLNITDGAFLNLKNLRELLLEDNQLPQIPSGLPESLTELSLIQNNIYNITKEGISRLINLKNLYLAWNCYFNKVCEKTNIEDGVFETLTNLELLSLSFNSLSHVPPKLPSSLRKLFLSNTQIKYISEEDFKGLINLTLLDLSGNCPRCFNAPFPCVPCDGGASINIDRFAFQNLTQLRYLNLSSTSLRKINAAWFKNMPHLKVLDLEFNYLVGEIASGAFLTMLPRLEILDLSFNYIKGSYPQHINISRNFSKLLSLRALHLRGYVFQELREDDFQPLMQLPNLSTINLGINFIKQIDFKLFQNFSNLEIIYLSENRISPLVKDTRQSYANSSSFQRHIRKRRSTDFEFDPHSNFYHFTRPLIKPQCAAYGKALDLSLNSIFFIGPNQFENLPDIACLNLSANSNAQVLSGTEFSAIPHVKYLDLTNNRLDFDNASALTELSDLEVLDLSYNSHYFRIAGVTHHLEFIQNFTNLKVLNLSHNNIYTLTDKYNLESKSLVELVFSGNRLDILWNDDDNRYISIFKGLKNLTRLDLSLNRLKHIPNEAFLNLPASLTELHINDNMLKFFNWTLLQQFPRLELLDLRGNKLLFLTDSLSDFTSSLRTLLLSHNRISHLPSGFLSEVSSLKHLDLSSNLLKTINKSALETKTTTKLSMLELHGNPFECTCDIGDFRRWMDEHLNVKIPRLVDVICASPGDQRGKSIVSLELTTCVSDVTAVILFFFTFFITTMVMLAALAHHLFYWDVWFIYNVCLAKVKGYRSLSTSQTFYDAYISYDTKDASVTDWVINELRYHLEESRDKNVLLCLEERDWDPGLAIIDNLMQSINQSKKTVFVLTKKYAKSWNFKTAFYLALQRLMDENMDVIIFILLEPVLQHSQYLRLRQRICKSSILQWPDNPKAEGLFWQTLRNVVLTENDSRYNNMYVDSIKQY
Experimental: (§1) The below tests, involving measuring the in vitro activity of some compounds of the disclosure on TLR7 and TLR8, were carried out using the HEK-Blue™ cells as reporter.
(§2) In Vitro Assay for Studying the Stimulation of Human TLR7 and TLR8:
HEK-Blue™ hTLR7 Cells (#hkb-htlr7) and HEK-Blue™ hTLR8 Cells (#hkb-htlr8) from InvivoGen were used according to the manufacturer's instructions. These Reporter HEK293 cells were obtained by co-transfection of the hTLR7 or TLR8 gene and an optimized Secreted Embryonic Alkaline Phosphatase (SEAP) reporter gene which is placed under the control of the IFN-β minimal promoter fused to five NF-κB and AP-1-binding sites. Stimulation with a TLR7/8 ligand activates NF-kB and AP-1 which induce the production of SEAP. The cells are seeded in 96-well plate at 3.10E4 cells/well and incubated 18 to 24 h at 37° C., 5% CO2 before adding the compounds to evaluate. […] Next, 20 μL of the supernatant is harvested and incubated with 200 μL of QUANTI-Blue™ Solution.

human TLR7 = target: T2, human TLR7 (Homo sapiens, UniProt Q9NYK1); assay: HEK-Blue hTLR7 reporter cell assay (SEAP, NF-kB/AP-1) for stimulation of human TLR7; type: cell-based; conditions: HEK-Blue hTLR7 cells; for EC50: 24 h incubation, SEAP readout, read-out: TLR7_EC50; for activation at 20 µM: 24 h, at 20000 nM
T2 construct: host or cells: HEK293 (HEK-Blue hTLR7)
T2 sequence (Q9NYK1 27-1049): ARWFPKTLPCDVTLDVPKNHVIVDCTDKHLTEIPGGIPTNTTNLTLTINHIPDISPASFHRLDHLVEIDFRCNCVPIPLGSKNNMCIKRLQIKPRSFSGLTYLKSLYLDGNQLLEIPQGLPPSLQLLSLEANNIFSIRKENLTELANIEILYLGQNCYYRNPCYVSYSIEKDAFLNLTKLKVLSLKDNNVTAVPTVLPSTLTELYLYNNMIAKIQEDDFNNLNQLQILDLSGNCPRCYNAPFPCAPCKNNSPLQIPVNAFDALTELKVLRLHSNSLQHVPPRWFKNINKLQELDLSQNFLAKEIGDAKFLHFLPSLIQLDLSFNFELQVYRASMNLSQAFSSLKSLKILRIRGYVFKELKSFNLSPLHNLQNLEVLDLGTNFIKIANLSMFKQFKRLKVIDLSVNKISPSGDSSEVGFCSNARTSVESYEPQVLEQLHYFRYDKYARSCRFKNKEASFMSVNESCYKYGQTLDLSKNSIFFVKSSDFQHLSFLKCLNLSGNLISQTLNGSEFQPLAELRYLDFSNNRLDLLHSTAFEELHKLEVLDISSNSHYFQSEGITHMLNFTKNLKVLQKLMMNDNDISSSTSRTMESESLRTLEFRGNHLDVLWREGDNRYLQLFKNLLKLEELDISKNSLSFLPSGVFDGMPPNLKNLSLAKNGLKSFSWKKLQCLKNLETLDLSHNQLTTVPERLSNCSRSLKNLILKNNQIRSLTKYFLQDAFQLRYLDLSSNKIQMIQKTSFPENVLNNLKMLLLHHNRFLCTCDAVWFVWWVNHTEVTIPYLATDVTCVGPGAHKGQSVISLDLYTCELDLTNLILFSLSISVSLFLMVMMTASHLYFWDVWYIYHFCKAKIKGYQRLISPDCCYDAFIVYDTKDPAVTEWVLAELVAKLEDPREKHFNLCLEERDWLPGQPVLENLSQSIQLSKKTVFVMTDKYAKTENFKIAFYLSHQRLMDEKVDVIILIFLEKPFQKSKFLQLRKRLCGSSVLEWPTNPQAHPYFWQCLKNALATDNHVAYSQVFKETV
Experimental: as §1
The activity described below, with respect to TLR7, TLR8, IFN-α2a, IL-6, IL29 and TNF-α, is given by the half maximal effective concentration (EC50), which corresponds to the concentration required to obtain a 50% of the activation. The lower the EC50, the less the concentration of the compound is required to produce 50% of maximum activation and the higher the potency.
as §2
HEK-Blue™ hTLR7 Cells (#hkb-htlr7) and HEK-Blue™ hTLR8 Cells (#hkb-htlr8) from InvivoGen were used according to the manufacturer's instructions. These Reporter HEK293 cells were obtained by co-transfection of the hTLR7 or TLR8 gene and an optimized Secreted Embryonic Alkaline Phosphatase (SEAP) reporter gene which is placed under the control of the IFN-β minimal promoter fused to five NF-κB and AP-1-binding sites. Stimulation with a TLR7/8 ligand activates NF-kB and AP-1 which induce the production of SEAP. The cells are seeded in 96-well plate at 3.10E4 cells/well and incubated 18 to 24 h at 37° C., 5% CO2 before adding the compounds to evaluate. The cells are subsequently incubated with 3-fold serial dilutions of each of the compounds (0.01 to 20 μM) for 24 hours at 37° C., 5% CO2. Next, 20 μL of the supernatant is harvested and incubated with 200 μL of QUANTI-Blue™ Solution.

EC50 (human TLR8) [nM]	EC50 (human TLR7) [nM]	activation at 20 µM (human TLR8) [%]	activation at 20 µM (human TLR7) [%]	Structure (SMILES)
15500	55	–	–	CCCCc1nc2c(N)nnc(OC(C)C)c2n1Cc1ccc(CNC(=O)CC)cc1 [Compound 103, N-(4-((4-amino-2-butyl-7-isopropoxy-1H-imidazo[4,5-d]pyridazin-1-yl)methyl)benzyl)propionamide]
–	–	6	8	CCCCc1nc2c(N)nnc(NC(C)C)c2[nH]1 [Compound 98, 2-butyl-N7-isopropyl-1H-imidazo[4,5-d]pyridazine-4,7-diamine]
> 20000	109	–	–	CCCCc1nc2c(N)nnc(OC(C)C)c2n1C[C@H]1CC[C@H](N)CC1 [Compound 25]
–	–	11.7	2.2	CCCCc1nc2c(N)nnc(C3CCNC3)c2n1Cc1ccc(CN)cc1 (stereo not drawn) [Compound 145, 1-[[4-(aminomethyl)phenyl]methyl]-2-butyl-7-pyrrolidin-3-yl-imidazo[4,5-d]pyridazin-4-amine]
> 20000	344	–	–	CCCCc1nc2c(N)nnc(OC3CCOCC3)c2n1Cc1ccc(OC)cc1 [Compound 57, 2-butyl-1-(4-methoxybenzyl)-7-((tetrahydro-2H-pyran-4-yl)oxy)-1H-imidazo[4,5-d]pyridazin-4-amine]
> 20000	120	–	–	CCCCc1nc2c(N)nnc(OC(C)C)c2n1Cc1ccc(CNC(=O)NCC)cc1 [Compound 113, 1-(4-((4-amino-2-butyl-7-isopropoxy-1H-imidazo[4,5-d]pyridazin-1-yl)methyl)benzyl)-3-ethylurea]
709	598	–	–	CCCCc1nc2c(N)nnc(OC(C)C)c2n1C[C@H]1CCC[C@H](N)C1 (racemic) [Compound 32, 1-(((1S,3S)-3-aminocyclohexyl)methyl)-2-butyl-7-isopropoxy-1H-imidazo[4,5-]pyridazin-4-amine]
637	8	–	–	CCCCc1nc2c(N)nnc(OC(C)C)c2n1Cc1ccc(CNC(C)C)cc1 [Compound 83, 2-butyl-7-isopropoxy-1-(4-((isopropylamino)methyl)benzyl)-1H-imidazo[4,5-d]pyridazin-4-amine dihydrochloride]
> 20000	32	–	–	CCCCc1nc2c(N)nnc(OC(C)C)c2n1C[C@H]1CC[C@H](CN)CC1 [Compound 19, 4-(aminomethyl)cyclohexyl)methyl)-2-butyl-7-isopropoxy-1H-imidazo[4,5-d]pyridazin-4-amine dihydrochloride]
1060	76	–	–	CCCCc1nc2c(N)nnc(OC(C)C)c2n1Cc1cccc(CNC2(C)CCC2)c1 [Compound 130, 2-butyl-7-isopropoxy-1-(3-(((1-methylcyclobutyl)amino)methyl)benzyl)-1H-imidazo[4,5-d]pyridazin-4-amine dihydrochloride salt]
> 20000	775	–	–	CCCCc1nc2c(N)nnc(NC)c2n1Cc1ccc(OC)cc1 [Compound 53, 2-butyl-1-(4-methoxybenzyl)-N7-methyl-1H-imidazo[4,5-d]pyridazine-4,7-diamine]
11400	2210	–	–	CCCCc1nc2c(N)nnc(OC(C)C)c2n1CCCCNC1CCOCC1 [Compound 150, 2-butyl-4-isopropoxy-3-[4-(tetrahydropyran-4-ylamino)butyl]imidazo[4,5-d]pyridazin-7-amine hydrochloride salt]
> 20000	345	–	–	CCCCc1nc2c(N)nnc(CCC(C)C)c2n1Cc1ccc(OC)cc1 [Compound 13, 2-butyl-7-isopentyl-1-(4-methoxybenzyl)-1H-imidazo[4,5-d]pyridazin-4-amine]
> 20000	596	–	–	CCCCc1nc2c(N)nnc(OC(C)C)c2n1CCCCCCN(C(C)=O)C1CS(=O)(=O)C1 [Compound 155, N-[6-(7-amino-2-butyl-4-isopropoxy-imidazo[4,5-d]pyridazin-3-yl)hexyl]-N-(1,1-dioxothietan-3-yl)acetamide hydrochloride salt]
6260	1550	–	–	CCCCc1nc2c(N)nnc(OC(C)C)c2n1Cc1cccc(CNC2CS(=O)(=O)C2)c1 [Compound 129, 3-((3-((4-amino-2-butyl-7-isopropoxy-1H-imidazo[4,5-d]pyridazin-1-yl)methyl)benzyl)amino)thietane 1,1-dioxide]
> 20000	4770	–	–	CCCCc1nc2c(N)nnc(OC3CCS(=O)(=O)C3)c2n1Cc1ccc(OC)cc1 (stereo not drawn) [Compound 68, 3-((4-amino-2-butyl-1-(4-methoxybenzyl)-1H-imidazo[4,5-d]pyridazin-7-yl)oxy)tetrahydrothiophene 1,1-dioxide]
–	> 20000	22.7	–	CCCCc1nc2c(N)nnc(-c3cc[nH]n3)c2n1Cc1ccc(OC)cc1 [Compound 96, 2-butyl-1-(4-methoxybenzyl)-7-(1H-pyrazol-3-yl)-1H-imidazo[4,5-d]pyridazin-4-amine]
> 20000	169	–	–	CCCCc1nc2c(N)nnc(OC(C)C)c2n1Cc1ccccc1 [Compound 80, 1-benzyl-2-butyl-7-isopropoxy-1H-imidazo[4,5-d]pyridazin-4-amine hydrochloride]
